Compound `O=C(C=Cc1ccccc1)OCC=Cc1ccccc1` has a melting point of 44 °C.
`COC=CC(=O)OC` gave a melting point of 3 to 4 °C.
In the case of `CCc1oc2ccccc2c1C(=O)c1cc(Br)c(O)c(Br)c1`, the melting point is reported as 151 °C.
Compound `Sc1nnc(-c2cccc3ccccc23)n1Cc1ccco1` has a melting point of 177 to 178 °C.
Compound `Cc1nc(-c2ccccc2)sc1C(=O)Cl` has a melting point of 122 to 124 °C.
`CC(C)C(C(=O)OC(C#N)c1cccc(Oc2ccccc2)c1)c1ccc(Cl)cc1` (stereo not drawn) gave a melting point of 60 °C.
For `Cc1cc(C)c(Br)c(C)c1N`, the melting point was 36 °C.
Work on `C#CCl` yielded a melting point of -126 °C.
`Nc1c(Cl)cc(OC(F)(F)F)cc1Cl` showed a melting point of 32 °C.
With `CC1(C)OC(=O)C(=NNc2ccc(Br)cc2)C(=O)O1` the melting point was 259 to 260 °C.
With `O=C(O)c1ccc(-n2cncn2)cc1` the melting point was 318 to 320 °C.
Compound `O=C1Nc2ccccc2CCC1Br` (stereo not drawn) has a melting point of 164 to 168 °C.
`CCC1CC(N)(C(=O)O)CC(C)(C)N1O` (stereo not drawn) gave a melting point of 230 °C.
Work on `O=[N+]([O-])c1cccc2cccc(/C=N\c3ccccc3)c12` yielded a melting point of 114 to 115 °C.
In the case of `Cc1cc(C=O)cc(C)c1O`, the melting point is reported as 114 °C.
In the case of `CC(C)(C)OC(=O)N1CCN(c2ccc(I)cc2)CC1`, the melting point is reported as 150 to 151 °C.
Work on `Clc1cc(Cl)cc(Br)c1` yielded a melting point of 83 °C.
With `NNC(=O)c1snnc1-c1ccccc1` the melting point was 129 to 130 °C.
Work on `Cc1cc(Oc2ccc(C(F)(F)F)cc2[N+](=O)[O-])ccc1Cl` yielded a melting point of 57 to 59 °C.
With `O=C1OC(c2ccccc2)=N/C1=C/c1ccc(-c2ccc(Br)cc2)o1` the melting point was 180 °C.
`CCCCCCCCCCCCCN` gave a melting point of 27.4 °C.
With `COc1cccc(C)c1` the melting point was -47 °C.
With `COC(=O)c1cc2c(=O)oc3ccccc3c2nc1N` the melting point was 263 to 265 °C.
With `O=C(OC(=O)c1ccc(C(F)(F)F)cc1)c1ccc(C(F)(F)F)cc1` the melting point was 130 °C.
`Cc1ccc(S(=O)(=O)Nc2ccccc2C)cc1` gave a melting point of 110 °C.
In the case of `O=[N+]([O-])c1ccc(C=NNc2ccccc2)cc1`, the melting point is reported as 166 °C.
In the case of `OC1CCc2ccccc2C1` (stereo not drawn), the melting point is reported as 15.5 °C.
For `Nc1ccc(Br)nc1`, the melting point was 77 °C.
For `CCCc1c(C(=O)O)cnn1-c1ccccc1`, the melting point was 107 to 110 °C.
`COc1c2c(cc3oc(=O)ccc13)OC(C)(C)C=C2` showed a melting point of 133 °C.
`Cn1nc(-c2ccccc2)cc1CN` showed a melting point of 48 to 49 °C.
In the case of `Brc1cccc(N2CCOCC2)n1`, the melting point is reported as 50 to 51 °C.
`Cc1cc(Br)cnc1F` showed a melting point of 62 °C.
With `CC(C)(C)CC(C)(C)Nc1nc(N2CCOCC2)nc(N2CCOCC2)n1` the melting point was 159 °C.
Compound `CCn1ccc2ccccc21` has a melting point of 105 °C.
`CC1(C)OC(CO)C(CO)O1` (single isomer, unassigned; (+)) showed a melting point of 47 to 51 °C.
For `CC1=NOC(=O)C1=NNc1ccccc1Cl`, the melting point was 168 °C.
`Cc1c(C(=O)O)nnn1Cc1ccc(Br)cc1` showed a melting point of 192 to 193 °C.
In the case of `CC1CCC(C(C)C)C(OC(=O)C(=O)C=Cc2ccccc2)C1` (stereo not drawn), the melting point is reported as 45.5 °C.
Compound `COc1ccc(Cl)cc1C` has a melting point of 34 °C.
`OCc1ccc(Br)cn1` showed a melting point of 59 to 60 °C.
Compound `O=C(O)c1ccc(-c2ccncc2)cc1` has a melting point of 300 °C.
`CCCCCCCCCCCCCCC(C)CC` (stereo not drawn) gave a melting point of -6 °C.
Work on `O=C1OC(c2ccc(Cl)cc2)=NC1=Cc1ccccc1` yielded a melting point of 181 to 182 °C.
In the case of `N#Cc1cccc(CBr)c1`, the melting point is reported as 94 °C.
Work on `C#CC1(O)CCC2C3CCC4C(C)(C)CCCC4(C)C3CCC21C` (stereo not drawn) yielded a melting point of 156 to 158 °C.
With `CN(C)c1ccc(C=C2C(=O)NC(=O)NC2=O)cc1` the melting point was 245 °C.
For `O=C(C1=NOC2C(=O)N(c3ccc(F)cc3)C(=O)C12)c1ccc(Cl)cc1` (stereo not drawn), the melting point was 151 °C.
For `CC1CCC(C)(C(=O)CCOC(=S)Nc2ccccc2)C1(C)C` (stereo not drawn), the melting point was 154 °C.
`CC1=CCC(O)(C(C)C)CC1` (stereo not drawn) gave a melting point of 14.7 °C.
Compound `Nc1c(Br)cccc1C(=O)O` has a melting point of 173 to 175 °C.
With `CC1CC(C)C(=O)C(C(O)CC2CC(=O)NC(=O)C2)C1` (stereo not drawn) the melting point was 119 °C.
`CCCCCCC(O)C1C2=C(CC(C(O)C3CC=CC(=O)O3)CC3=C(C(=O)OC3=O)C1O)C(O)OC2=O` (stereo not drawn) showed a melting point of 214 °C.
Compound `CCC1(CC)C(=O)NCC(C)C1=O` (stereo not drawn) has a melting point of 76 °C.
For `COc1cc(N=C=S)c(OC)cc1Cl`, the melting point was 84 to 86 °C.
Compound `CC(C)(C)c1ccc2ccccc2c1` has a melting point of -4 °C.
`CCCOc1c2cccc1Cc1cc(Br)cc(c1O)Cc1cccc(c1OCCC)Cc1cc(Br)cc(c1O)C2` showed a melting point of 307 to 309 °C.
With `CC(=O)N(Nc1ccccc1)c1ccc(-c2ccc(/N=N/c3ccccc3)cc2)cc1` the melting point was 244 °C.
For `C=C(C)C(CC)CC`, the melting point was -113 °C.
Compound `c1ccc(C/C(=N\Nc2ccccc2)c2ccc3ccccc3c2)cc1` has a melting point of 165 to 167 °C.
In the case of `Brc1sc(Br)c2c1OCCO2`, the melting point is reported as 98 °C.
With `Cc1nn(C)c(N2CCOCC2)c1N` the melting point was 156 to 157 °C.
Compound `O=C(Nc1cccnc1Cl)c1ccc(F)cc1` has a melting point of 140 to 142 °C.
Work on `O=C(O)CCCCCCCCCCCO` yielded a melting point of 86.5 °C.
For `Clc1ccc2c(c1)Cc1cc(Cl)ccc1-2`, the melting point was 128 °C.
In the case of `N/N=C(/C(=O)c1cccc2ccccc12)c1ccccc1`, the melting point is reported as 152 °C.
With `CN=C1SC(CC(=O)O)C(=O)N1C` (stereo not drawn) the melting point was 157 to 159 °C.
Compound `CC1NC(=O)C(C)NC1=O` (stereo not drawn) has a melting point of 274 to 278 °C.
With `CN(CC(=O)N1CCOCC1)Cc1c(Cl)cccc1NC(=O)c1ccccc1` the melting point was 123 °C.
`Cc1nc(-c2cc(C(=O)Cl)no2)cs1` gave a melting point of 89 to 91 °C.
In the case of `COc1ccc([N+](=O)[O-])c(SC(C)C(=O)O)n1` (stereo not drawn), the melting point is reported as 196 to 199 °C.
Work on `Cc1c(Cl)c(Cl)c(C)c(Cl)c1Cl` yielded a melting point of 216 °C.
In the case of `N=C1NC(=N)c2ccccc21`, the melting point is reported as 190 °C.
In the case of `CCOC(=O)c1c(C)[nH]c(=O)[nH]c1=S`, the melting point is reported as 150 °C.
`O=Cc1coc2ccccc2c1=O` showed a melting point of 151 to 155 °C.
`COC(=O)c1cc(N)cc(N)c1` gave a melting point of 133 °C.
In the case of `COc1ccc(C(=O)c2ccc(C)cc2)cc1OC`, the melting point is reported as 109 °C.
In the case of `O=C(O)c1cc(Oc2ccc(C(F)(F)F)cc2Cl)ccc1[N+](=O)[O-]`, the melting point is reported as 155 °C.
With `CC(C)(C)S(=O)(=O)CC(N)=S` the melting point was 184 to 186 °C.
`O=C1OC(=O)C2CCCCC12` (stereo not drawn) gave a melting point of 32 °C.
Compound `O=C(O)c1cncc(Br)c1` has a melting point of 184 °C.
In the case of `CC(C)C(=O)C(C)C`, the melting point is reported as -69 °C.
For `c1ccc(-c2ccccc2-c2ccccc2-c2ccccc2)cc1`, the melting point was 118 °C.
In the case of `ClCc1cccc(-c2ncccn2)c1`, the melting point is reported as 68 to 70 °C.
Compound `CCCCCOc1ccc(O)cc1` has a melting point of 46 to 49 °C.
In the case of `O=C(C1=NOC2C(=O)N(c3cccc([N+](=O)[O-])c3)C(=O)C12)c1cccs1` (stereo not drawn), the melting point is reported as 164 °C.
For `Brc1ccc2ncccc2c1`, the melting point was 24 °C.
`CC1=C(C#N)C(c2cccc([N+](=O)[O-])c2)C(C(=O)OC(C)(C)C)=C(C)N1` (stereo not drawn) gave a melting point of 61 °C.
`CC1C(=CC(=O)OCCN(C)C)CCC2C1C(=O)CC1C(C)(C)C(O)CCC21C` (stereo not drawn) showed a melting point of 142 °C.
For `O=C(O)C1(O)CC1`, the melting point was 108 to 110 °C.
Compound `CCC(CC)COC(=O)CCCCCCCC(=O)OCC(CC)CC` has a melting point of -45 °C.
Compound `Cc1ccc(I)c([N+](=O)[O-])c1` has a melting point of 52 to 54 °C.
`CN1CCN(c2ccc(C(=O)O)cc2)CC1` showed a melting point of 270 °C.
Work on `C12C3C4C1C1C2C3C41` (stereo not drawn) yielded a melting point of 126 °C.
`O=C=Nc1cc(Cl)ccc1Cl` gave a melting point of 30 °C.
`N#Cc1ccc(N2CCCCC2)cc1` showed a melting point of 51 to 53 °C.
Compound `CC1C2CCC3C4CC=C5CC(N(C)C)CCC5(C)C4CCC32CN1C` (stereo not drawn) has a melting point of 126 °C.
`O=C(NC(=O)c1c(F)cccc1F)Nc1cc(Cl)c(OC(F)(F)C(F)F)c(Cl)c1` gave a melting point of 204 °C.
`ON=CC1=C(C#Cc2ccccc2)CCC1` gave a melting point of 105 to 106 °C.
For `CC(C)COC(=O)CCCCC(=O)OCC(C)C`, the melting point was -20 °C.
In the case of `O=C(c1ccccc1)c1coc(-c2ccc(Cl)cc2)c1S(=O)(=O)c1ccccc1`, the melting point is reported as 96 to 97 °C.
`O=Cc1ccccc1-c1ccccc1C(=O)O` gave a melting point of 128 to 133 °C.
Compound `O=[N+]([O-])c1ccc(Cl)cc1[N+](=O)[O-]` has a melting point of 40 to 41 °C.
With `COc1c(C)c(C)c(OC)c2c1CC2=O` the melting point was 109 °C.
Compound `CCOC(=O)c1c(NS(=O)(=O)c2ccc(Cl)cc2)nn(-c2ccc([N+](=O)[O-])cc2)c1N` has a melting point of 200 °C.
`Cn1c(S)nnc1Cc1nc(-c2cnccn2)no1` showed a melting point of 203 to 204 °C.
Compound `OC(c1ccccc1)P(c1ccccc1)c1ccccc1` (stereo not drawn) has a melting point of 157 °C.
With `COC(C)(C)OC` the melting point was -47 °C.
Compound `C=CCC1(O)CCC2C3CCC4=CC(=O)CCC4=C3C=CC21C` (stereo not drawn) has a melting point of 120 °C.
Compound `O=C1NN(c2ccccc2)C(=O)C1=CNc1ccccc1` has a melting point of 276 °C.
For `CC(=O)N(C(C)=O)c1cc(C=CC(=O)O)ccc1C=CC(=O)O`, the melting point was 310 to 315 °C.
Compound `SC1CCCCC1` has a melting point of -30 °C.
`CC12CCCC1C1CCC3CC(Cc4ccccc4)CCC3(C)C1CC2` (stereo not drawn) showed a melting point of 148 °C.
With `CSc1ccc(N=C=S)cc1` the melting point was 50 °C.
`CC(=O)Nc1ccc(F)cc1Cl` showed a melting point of 117 to 120 °C.
With `Cc1cc(Cc2cc(C)cc(C3(C)CCCCC3)c2O)c(O)c(C2(C)CCCCC2)c1` the melting point was 135 °C.
Compound `Cc1cccc2c1C(=O)OC2O` (stereo not drawn) has a melting point of 117 °C.
For `Ic1ccc(-c2ccc(I)cc2)cc1`, the melting point was 207 °C.
Compound `Cn1c(=O)c(C2=NNC(=O)C2=CNc2cccnc2)c(O)c2ccccc21` has a melting point of 281 °C.
`CN1C(=O)C(=NNc2cccc(Cl)c2)C(=O)N(C)C1=O` showed a melting point of 202 °C.
Compound `Cc1oc(-c2ccccc2)nc1CCO` has a melting point of 72 to 75 °C.
In the case of `Cc1cccc(NC(=O)C(C(F)(F)F)C(F)(F)F)c1`, the melting point is reported as 175 °C.
In the case of `OCc1ccc(F)cc1`, the melting point is reported as 23 °C.
`C=CCc1cc(Cl)ccc1O` showed a melting point of 48 °C.
Compound `CNC(C)C1CCC(N)C(OC2C(N)CC(N)C(OC3OCC(C)(O)C(NC)C3O)C2O)O1` (stereo not drawn) has a melting point of 105 °C.
Compound `O=C(Nc1cccnc1Cl)c1ccc(Cl)cc1Cl` has a melting point of 148 to 150 °C.
`CC1(C)CC(=O)C(=NNc2cccc([N+](=O)[O-])c2)C(=O)C1` gave a melting point of 186 °C.
Work on `CCCCCCCCCCCI` yielded a melting point of 2 °C.
